Values quoted from earlier work in patent US20100105750A1, “STABLE METRONIDAZOLE GEL FORMULATIONS” (NYCOMED US INC., priority 2008, published 2010).

Structure (SMILES): OCc1ccccc1 [benzyl alcohol]
- water soluble: 4 g/100 mL
